Legend:
bESCs [1] = experiment: bESC growth in mTeSR medium with DAPT and IWR-1 (Medium 3 / Method 3); type: cell-based, bovine
Description: To test whether DAPT can be used for bESC cultures, the growth of bESC was tested in mTeSR medium with different concentrations of DAPT and IWR-1. […] Addition of IWR-1 to DAPT had no effect on bESCs. (FIG. 3, Table 6; bESC Medium 3/Method 3). mTeSR with 10 μM DAPT alone supported bESC cultures for more than 7 passages.
In Method 3, bESC were cultured in bESC medium 3 composed of TeSR Plus (WiCell) supplemented with […] of gamma γ-secretase inhibitor DAPT on collagen or a vitronectin-coated 6-well plate and were passage using PBS-EDTA. Following aspiration of bESC growth media, 0.7-1.2 mL of PBS-EDTA solution was added to each well of 6 well plate. After incubation 5 to 6 min at +37° C., PBS-EDTA was carefully removed by aspiration and 1-1.2 mL of cold (+1-+4° C.) TeSR medium was added, cells were suspended by pipette filtered via strainer (70 mkM), counted and an aliquot of 100,000 to 150,000 cell/well for 6 wells plate was taken and cells were centrifuged at 100 g for 5 minutes. Cell pellets were resuspended in 9 mL growth medium and plated on a collagen or vitronectin coated 6-well plate. Cells grew for 5-7 days until they formed large colonies. PBS-EDTA solution was prepared as described above.

bESCs [2] = experiment: bESC growth in Medium 1 with alternative Wnt inhibitors (Medium 1a/1b) on vitronectin, feeder-free; type: cell-based, bovine
Description: 1) Wnt-inhibitors (Medium la and Medium 1b): In prior studies, mTeSR Plus medium supplemented with 20 ng/ml human FGF2 and 2.5 μM IWR1 was used for bESC cultures (Saito et al. 1992; Stice et al. 1996). […] Nat Chem Biol 11, 973-980 (2015); and Mallinger et al., Discovery of potent, orally bioavailable, small-molecule inhibitors of WNT signaling from a cell-based pathway screen.
bESC growth in Medium 1 was tested with concentrations of 1 nM, 5 nM, or 10 nM iCRT3 (Medium 1a).
In another set of experiments, bESC growth in Medium 1 was tested with concentrations of 1 nM, 5 nM, 75 nM, or 150 nM CCT251545 (Medium 1b).
In Method 1, bESC colonies growing on Vitronectin were passaged by using TrypLe. Following medium aspiration 0.5-0.8 mL of TrypLE was added to each well of 6 well plate. Cells incubated for 3.5 min at 37.2° C. Then TrypLE has been carefully removed by aspiration and 1-1.2 mL of cold (+1-+4° C.) TeSRr medium was added, cells were suspended by pipette filtered via strainer (70 mkM), counted and an aliquot of 70,000 to 100,000 cell/well for 6 wells plate was taken and cells centrifuged at 100 g for 5 minutes. The cell pellet was resuspended in 9 mL growth medium and seeded on coated by vitronectin 6-well plate.

bESCs [3] = experiment: Matrix coating supporting expansion of bESCs in feeder-free conditions; type: cell-based, bovine; conditions: for bESC growth on pre-coated plate (FIG. 2): Method 1 bESCs, medium with 2.5 μM IWR-1 (bESC medium 1)
Source text: After co-culture with MEFs, bESCs were collected using TrypLE treatment and cultured in 6-well plastic plates in feeder-free conditions for expansion. […] However, collagen pre-coated plates can be used to support bESC growth in bESC medium 2.
To establish feeder-free conditions for bESCs, bESCs were collected from coculture with MEFs using TrypLE treatment and transferred into 6-well plastic plates precoated Vitronectin XF, collagen, or Matrigel®.
Vitronectin Coating Preparation: A frozen vial of Vitronectin XF (2 mL) from Stem Cell Technology (Cat #07180) was thawed and mixed with 50 mL of DPBS and distributed into 6 of 6-well plates (˜1.4 mL/well) sealed with Parafilm and kept wrapped in foil at +4° C. for not more than 2 weeks. Before use, the plate was kept at +37° C. for at least 1 hr. Immediately after aspiration excess of liquid, bESCs in culture medium were added.
Collagen Coating Preparation: Collagen (Sigma, Cat #5162-1G) was dissolved in distilled water and sterilized by filtration using 0.22 um filter. Collagen solution aliquoted into 70 μL PCR tubes and kept at −80° C. before use. For coating wells, the content of tube was transferred into 50 mL DPBS, carefully mixed, and distributed into 6 of 6 wells plate, approximately 1.3-1.4 mL/well. Plates sealed with Parafilm and kept at RT not more than 2 wecks.
Matrigel® Coating Preparation: Frozen stock (˜0.5 mL) of Matrigel® needs was thaw on ice and diluted in 50 mL of cold DPBS (+4° C.). Approximately 1.2-1.3 mL (9 μg/cm^2) of diluted Matrigel® solution was added to each well. After 1 hour incubation at +37° C. excess Matrigel® was removed and wells washed with warm DPBS.

[4] = test system: bovine embryo derived blastocysts; experiment: Generation of bESC lines from blastocysts on different coatings; type: cell-based; conditions: Method 1
Description: bESCs were generated from IVM/IVF bovine embryo derived blastocysts on 6th to 7th days post-fertilization. Briefly, bovine embryos were obtained from an outside source and cultured in TeSR Plus medium supplemented with 15% fetal bovine serum from 24 to 72 hours to get an expanded blastocyst stage. After that zona pellucida was removed by treating embryos with pronase. Embryos with stripped zona pellucida were plated on irradiated MEFs (obtained from WICell) in a 4-well IVF plate and cultured according to Method 1 or Method 2. Following expansion of inner cell mass after culture for 2-3 weeks on MEFs, cells were disaggregated by TrypLE, and bESC were generated from individual blastocysts by two Methods (Method 1 or Method 2) to maximize efficiency.
To determine if feeder-free conditions were suitable for maximizing generation of bESCs from inner cell mass, individual blastocysts were placed into culture plates according to Method 1 or Method 2 with coating conditions modified as shown in Table 1. Coating conditions using MEF feeder cells or vitronectin (feeder-free) were tested. In the first set, 11 bovine embryos were used to establish 4 bESC lines, 3 of which were differentiated and tossed after passage 5-7. Only one cell line remained undifferentiated and maintained expression of bESC pluripotency factors Oct4 and Sox2. […]

[5] = 1 nM inhibitor in Medium 1, vitronectin
[6] = feeder-free, bESC medium 1 or 2

O=C(Nc1cccc2cccnc12)c1ccc(N2C(=O)[C@@H]3[C@H](C2=O)[C@@H]2C=C[C@H]3C2)cc1 [IWR-1]
effect on bESCs of addition to DAPT (bESCs [1]; IWR-1 added to DAPT in mTeSR medium): no effect

C[C@H](NC(=O)Cc1cc(F)cc(F)c1)C(=O)NC(C(=O)OC(C)(C)C)c1ccccc1 (some centres unmarked) [DAPT]
growth of bESCs (bESCs [1]; DAPT alone at 5-10 μM in mTeSR medium): sufficient to support growth of bESCs | passages of supported bESC cultures (bESCs [1]; mTeSR with 10 μM DAPT alone): more than 7 passages

CCc1ccc(-c2nc(CSCC(=O)NCCc3ccccc3)c(C)o2)cc1 [iCRT3]
bESC growth on vitronectin (bESCs [2]; 1 nM inhibitor in Medium 1): did not support bESC growth | passages after which cells died (bESCs [2]; [5]): 1-2 passages | bESC growth on vitronectin (bESCs [2]; 5 nM inhibitor in Medium 1): did not support bESC growth | passages after which cells died (bESCs [2]; 5 nM inhibitor in Medium 1, vitronectin): 2-4 passages | bESC growth with typical morphology and expression of Sox2 and Oct4 (bESCs [2]; 10 nM inhibitor in Medium 1): supported bESC growth | passages of supported bESC growth (bESCs [2]; 10 nM inhibitor in Medium 1): more than 10 passages

collagen
bESC growth on pre-coated plate (FIG. 2) (bESCs [3]): supports bESC cultures | bESC adherence to matrix (bESCs [3]; bESC medium 1): very lightly and weak | bESC colony formation and growth on matrix (bESCs [3]; bESC medium 2): able to form colonies and grow | bESC morphology on matrix (bESCs [3]; [6]): maintained a typical bESC morphology

Cn1cc(-c2ccc(-c3cncc(Cl)c3N3CCC4(CCNC4=O)CC3)cc2)cn1 [CCT251545]
bESC growth on vitronectin (bESCs [2]; 1 nM inhibitor in Medium 1): did not support bESC growth | passages after which cells died (bESCs [2]; [5]): 2-3 passages | bESC growth on vitronectin (bESCs [2]; 5 nM inhibitor in Medium 1): did not support bESC growth | bESC growth on vitronectin (bESCs [2]; 75 nM inhibitor in Medium 1): did not support bESC growth | bESC growth with typical morphology and expression of Sox2 and Oct4 (bESCs [2]; 150 nM inhibitor in Medium 1): supported bESC growth | passages of supported bESC growth (bESCs [2]; 150 nM inhibitor in Medium 1): more than 7 passages

gelatin
bESC growth on pre-coated plate (FIG. 2) (bESCs [3]): do not support the growth of bESCs | bESC attachment to pre-coated plates (bESCs [3]; [6]): attached | bESC growth on pre-coated plates (bESCs [3]; [6]): did not grow

B1: vitronectin + Cover Glass on the top: vitronectin coating with cover glass on top (protein, UniProt P04004 20-478, looked up)
Vitronectin: DQESCKGRCTEGFNVDKKCQCDELCSYYQSCCTDYTAECKPQVTRGDVFTMPEDEYTVYDDGEEKNNATVHEQVGGPSLTSDLQAQSKGNPEQTPVLKPEEEAPAPEVGASKPEGIDSRPETLHPGRPQPPAEEELCSGKPFDAFTDLKNGSLFAFRGQYCYELDEKAVRPGYPKLIRDVWGIEGPIDAAFTRINCQGKTYLFKGSQYWRFEDGVLDPDYPRNISDGFDGIPDNVDAALALPAHSYSGRERVYFFKGKQYWEYQFQHQPSQEECEGSSLSAVFEHFAMMQRDSWEDIFELLFWGRTSAGTRQPQFISRDWHGVPGQVDAAMAGRIYISGMAPRPSLAKKQRFRHRNRKGYRSQRGHSRGRNQNSRRPSRATWLSLFSSEESNLGANNYDDYRMDWLVPATCEPIQSVFFFSGDKYYRVNLRTRRVDTVDPPYPRSIAQYWLGCPAPGHL
Number of bESC lines generated [4]: 0

— patent publication US20250019657A1, “Generation of Adipocytes from Bovine Embryonic Stem Cell Lines” (Wisconsin Alumni Research Foundation, priority 2023, published 2025)
